Assay results as given in US20260285850A1, “SUBSTITUTED OXAZOLIDINONES AND IMIDAZOLINONES AS HERBICIDES” (FMC CORPORATION, priority 2023, published 2026).

Columns and labels:
Format in all cases: in vivo
[1] = test system: wheat (Triticum aestivum); assay: Test A preemergence soil spray, visual injury rating 0-100; conditions: 10 days
Method in brief: (§1)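 Grow plants in loam soil blended with sand. Apply formulated compound (non-phytotoxic solvent, surfactant) as a directed soil spray before emergence, or to plants at the one- to two-leaf stage after emergence. Hold in greenhouse 10 days, then rate injury visually versus untreated controls on a 0-100 scale.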

[2] = test system: green foxtail (Setaria viridis); assay: as above; conditions: 10 days
Method in brief: as §1

soybean (Glycine max) [3] = assay: as above; conditions: 10 days
Method in brief: as §1

[4] = test system: ragweed (common ragweed, Ambrosia artemisiifolia); assay: as above; conditions: 10 days
Method in brief: as §1

[5] = test system: blackgrass (Alopecurus myosuroides); assay: as above; conditions: 10 days
Method in brief: as §1

[6] = test system: palmer (palmer amaranth, palmer pigweed, Amaranthus palmeri); assay: as above; conditions: 10 days
Method in brief: as §1

kochia (Bassia scoparia) [7] = assay: as above; conditions: 10 days
Method in brief: as §1

[8] = test system: barnyardgrass (Echinochloa crus-galli); assay: as above; conditions: 10 days
Method in brief: as §1

corn (Zea mays) [9] = assay: as above; conditions: 10 days
Method in brief: as §1

[10] = test system: oat, wild (wild oat, Avena fatua); assay: as above; conditions: 10 days
Method in brief: as §1

[11] = test system: ryegrass, Italian (italian ryegrass, Lolium multiflorum); assay: as above; conditions: 10 days
Method in brief: as §1

[12] = test system: horseweed (Erigeron canadensis); assay: Test A postemergence application, visual injury rating 0-100
Method in brief: as §1

[13] = test system: wheat (Triticum aestivum); assay: as above
Method in brief: as §1

[14] = test system: green foxtail (Setaria viridis); assay: as above
Method in brief: as §1

soybean (Glycine max) [15] = assay: as above
Method in brief: as §1

[16] = test system: ragweed (common ragweed, Ambrosia artemisiifolia); assay: as above
Method in brief: as §1

[17] = test system: blackgrass (Alopecurus myosuroides); assay: as above
Method in brief: as §1

[18] = test system: palmer (palmer amaranth, palmer pigweed, Amaranthus palmeri); assay: as above
Method in brief: as §1

kochia (Bassia scoparia) [19] = assay: as above
Method in brief: as §1

[20] = test system: barnyardgrass (Echinochloa crus-galli); assay: as above
Method in brief: as §1

corn (Zea mays) [21] = assay: as above
Method in brief: as §1

[22] = test system: galium (catchweed bedstraw, Galium aparine); assay: as above; conditions: Postemergence, 16 g ai/ha, greenhouse 10 days; 0 no effect, 100 complete control
Method in brief: as §1

[23] = test system: oat, wild (wild oat, Avena fatua); assay: as above
Method in brief: as §1

[24] = test system: ryegrass, Italian (italian ryegrass, Lolium multiflorum); assay: as above
Method in brief: as §1

[25] = test system: barnyardgrass (Echinochloa crusgalli); assay: Test B flooded paddy test, visual plant response rating 0-100; conditions: 250 g ai/ha, Flood, applied to paddy water, evaluated after 13 days
Method in brief: (§2)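 2-leaf plants; flood 3 cm over soil; compound dosed into paddy water; depth kept constant; greenhouse 13 d; visual scoring vs controls. Dash = no result.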

[26] = test system: ducksalad (Heteranthera limosa); assay: as above; conditions: 250 g ai/ha, Flood, applied to paddy water, evaluated after 13 days
Method in brief: as §2

[27] = test system: sedge, umbrella (small-flower umbrella sedge, Cyperus difformis); assay: as above; conditions: 250 g ai/ha, Flood, applied to paddy water, evaluated after 13 days
Method in brief: as §2

rice (Oryza sativa) = assay: as above; conditions: 250 g ai/ha, Flood, applied to paddy water, evaluated after 13 days
Method in brief: as §2

[28] = 62 g ai/ha, 0 = no effect, 100 = complete control
[29] = 62 g ai/ha, postemergence, 10 days, 0 = no effect, 100 = complete control
[30] = Postemergence, 16 g ai/ha, greenhouse 10 days, 0 no effect, 100 complete control

SMILES: CSCCOC(=O)C1=CCC(NC(=O)C2(C)CN(c3cc(Cl)cc(Cl)c3)C(=O)O2)C1 (stereo not drawn) [Compound 146]
- Wheat plant response rating ([1]; 16 g ai/ha, 0 to 100 scale): 0
- Wheat plant response rating (0-100) [1, 28]: 0
- Foxtail, Green plant response rating ([2]; 16 g ai/ha, 0 to 100 scale): 0
- Foxtail, Green plant response rating (0-100) [2, 28]: 0
- Soybean plant response rating (soybean (Glycine max) [3]; 16 g ai/ha, 0 to 100 scale): 0
- Soybean plant response rating (0-100) (soybean (Glycine max) [3]; [28]): 0
- Ragweed plant response rating ([4]; 16 g ai/ha, 0 to 100 scale): 0
- Ragweed plant response rating (0-100) [4, 28]: 0
- Blackgrass plant response rating ([5]; 16 g ai/ha, 0 to 100 scale): 0
- Blackgrass plant response rating (0-100) [5, 28]: 0
- Pigweed, Palmer plant response rating ([6]; 16 g ai/ha, 0 to 100 scale): 0
- Pigweed, Palmer plant response rating (0-100) [6, 28]: 0
- Kochia plant response rating (kochia (Bassia scoparia) [7]; 16 g ai/ha, 0 to 100 scale): 0
- Kochia plant response rating (0-100) (kochia (Bassia scoparia) [7]; [28]): 0
- Barnyardgrass plant response rating ([8]; 16 g ai/ha, 0 to 100 scale): 0
- Barnyardgrass plant response rating (0-100) [8, 28]: 0
- Corn plant response rating (corn (Zea mays) [9]; 16 g ai/ha, 0 to 100 scale): 0
- Corn plant response rating (0-100) (corn (Zea mays) [9]; [28]): 0
- Oat, Wild plant response rating ([10]; 16 g ai/ha, 0 to 100 scale): 0
- Oat, Wild plant response rating (0-100) [10, 28]: 0
- Ryegrass, Italian plant response rating ([11]; 16 g ai/ha, 0 to 100 scale): 0
- Ryegrass, Italian plant response rating (0-100) [11, 28]: 20
- Horseweed plant response rating (0-100) [12, 29]: 10
- Horseweed plant response rating (0 to 100 scale) [12, 30]: 0
- Wheat plant response rating (0-100) [13, 29]: 0
- Wheat plant response rating (0 to 100 scale) [13, 30]: 0
- Foxtail, Green plant response rating (0-100) [14, 29]: 0
- Foxtail, Green plant response rating (0 to 100 scale) [14, 30]: 0
- Soybean plant response rating (0-100) (soybean (Glycine max) [15]; [29]): 0
- Soybean plant response rating (0 to 100 scale) (soybean (Glycine max) [15]; [30]): 0
- Ragweed plant response rating (0-100) [16, 29]: 0
- Ragweed plant response rating (0 to 100 scale) [16, 30]: 0
- Blackgrass plant response rating (0-100) [17, 29]: 0
- Blackgrass plant response rating (0 to 100 scale) [17, 30]: 0
- Pigweed, Palmer plant response rating (0-100) [18, 29]: 0
- Pigweed, Palmer plant response rating (0 to 100 scale) [18, 30]: 0
- Kochia plant response rating (0-100) (kochia (Bassia scoparia) [19]; [29]): 0
- Kochia plant response rating (0 to 100 scale) (kochia (Bassia scoparia) [19]; [30]): 0
- Barnyardgrass plant response rating (0-100) [20, 29]: 20
- Barnyardgrass plant response rating (0 to 100 scale) [20, 30]: 0
- Corn plant response rating (0-100) (corn (Zea mays) [21]; [29]): 0
- Corn plant response rating (0 to 100 scale) (corn (Zea mays) [21]; [30]): 0
- Galium plant response rating (0 to 100 scale) [22]: 0
- Oat, Wild plant response rating (0-100) [23, 29]: 0
- Oat, Wild plant response rating (0 to 100 scale) [23, 30]: 0
- Ryegrass, Italian plant response rating (0-100) [24, 29]: 0
- Ryegrass, Italian plant response rating (0 to 100 scale) [24, 30]: 0
- Plant response rating, Barnyardgrass (0 to 100 scale, 0 is no effect and 100 is complete control) [25]: 0
- Plant response rating, Ducksalad (0 to 100 scale, 0 is no effect and 100 is complete control) [26]: 0
- Plant response rating, Sedge, Umbrella (0 to 100 scale, 0 is no effect and 100 is complete control) [27]: 0
- Plant response rating, Rice (0 to 100 scale, 0 is no effect and 100 is complete control) (rice (Oryza sativa)): 0
